Assays:
Assay type in all cases: cell-based
[1] = tested on: Enterococcus faecalis (EFA); experiment: MIC, two-fold agar dilution (CLSI), clinical isolates
How it was run: (§1)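 Susceptibility was tested using CLSI two-fold agar dilution against the strains examined.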

[2] = tested on: Enterococcus faecium (EFM); experiment: as above
How it was run: as §1

[3] = tested on: Escherichia coli (including ESBLs, non-ESBLs); experiment: as above
How it was run: as §1

[4] = tested on: Moraxella catarrhalis (BCA); experiment: as above
How it was run: as §1

[5] = tested on: Streptococcus pneoumoniae (SPN); experiment: as above
How it was run: as §1

[6] = tested on: methicillin-resistant Staphylococcus aureus (MRSA); experiment: as above
How it was run: as §1

[7] = tested on: methicillin-resistant Staphylococcus epidermidis (MRSE); experiment: as above
How it was run: as §1

[8] = tested on: methicillin-sensitive Staphylococcus aureus (MSSA); experiment: as above
How it was run: as §1

[9] = tested on: methicillin-sensitive Staphylococcus epidermidis (MSSE); experiment: as above
How it was run: as §1

[10] = tested on: HCT-116 colorectal cancer cell line; experiment: CCK-8 proliferation inhibition; settings: concentration of 30 μM, 72 hours, CCK-8
How it was run: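 HCT-116 cells, seeded at 2000 cells/well in McCoy's 5A with 10% newborn bovine serum, were cultured overnight at 37° C., 5% CO2, then exposed to compound dilutions in medium for 72 hours. Viability was read with 1:10 diluted CCK-8; controls received 1‰ DMSO.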

[11] = tested on: A549 lung cancer cell line; experiment: CCK-8 proliferation inhibition; settings: Homo sapiens, A549, 72 h, concentration of 30 μM
How it was run: (§2)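 Plating at 2000 cells/well, then incubation overnight at 37° C. Next, a range of compound concentrations for 72 hours (control 1‰ DMSO). Finally, medium decanted and CCK-8 diluted 1:10 added.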

[12] = tested on: BEL-7402 liver cancer cell line; experiment: CCK-8 proliferation inhibition; settings: concentration of 30 μM
How it was run: as §2

[13] = tested on: MGC-803 gastric cancer cell line; experiment: CCK-8 proliferation inhibition; settings: Homo sapiens, MGC-803, 72 h, concentration of 30 μM
How it was run: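 Cells were seeded at 2000 cells/well and cultured overnight at 37° C, 5% CO2, then exposed for 72 hours to compounds diluted from DMSO stocks. Controls received 1‰ DMSO. CCK-8 (1:10 diluted) replaced the medium. MGC-803 and Jurkat were grown in 1640, PC3 in F12, and MCF-7 in DMEM high glucose, each with 10% newborn bovine serum.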

`CCCC[C@H](CC(=O)NO)C(=O)N1CC2(CC2)C[C@H]1C(=O)Nc1nc(C)cs1` [Example 51, (S)-5-((R)-2-(2-(hydroxyamino)-2-oxoethyl)hexanoyl)-N-(4-methylthiazol-2-yl)-5-spiro[2.4]heptane-6-carboxamide] gave an Anti-bacterial activity (MIC), strain EFA 15-1 ([1]; clinical isolate EFA 15-1) of 8 µg/mL, an Anti-bacterial activity (MIC), strain EFA 15-2 ([1]; clinical isolate EFA 15-2) of 8 µg/mL and an Anti-bacterial activity (MIC), strain EFA 15-3 ([1]; clinical isolate EFA 15-3) of 2 µg/mL. It also gave an Anti-bacterial activity (MIC), strain EFA 15-4 ([1]; clinical isolate EFA 15-4) of 8 µg/mL, an Anti-bacterial activity (MIC), strain EFA 15-5 ([1]; clinical isolate EFA 15-5) of 8 µg/mL and an Anti-bacterial activity (MIC), strain EFA 15-6 ([1]; clinical isolate EFA 15-6) of 8 µg/mL. The Anti-bacterial activity (MIC), strain EFA 15-9 ([1]; clinical isolate EFA 15-9) was 8 µg/mL, the Anti-bacterial activity (MIC), strain EFM 15-1 ([2]; clinical isolate EFM 15-1) was 2 µg/mL and the Anti-bacterial activity (MIC), strain EFM 15-2 ([2]; clinical isolate EFM 15-2) was 2 µg/mL. The Anti-bacterial activity (MIC), strain EFM 15-3 ([2]; clinical isolate EFM 15-3) was 0.5 µg/mL, the Anti-bacterial activity (MIC), strain EFM 15-4 ([2]; clinical isolate EFM 15-4) was 2 µg/mL and the Anti-bacterial activity (MIC), strain EFM 15-5 ([2]; clinical isolate EFM 15-5) was 1 µg/mL. It also gave an Anti-bacterial activity (MIC), strain EFM 15-6 ([2]; clinical isolate EFM 15-6) of 2 µg/mL, an Anti-bacterial activity (MIC), strain ECO+ 15-1 ([3]; clinical isolate ECO+ 15-1) of 16 µg/mL and an Anti-bacterial activity (MIC), strain ECO+ 15-2 ([3]; clinical isolate ECO+ 15-2) greater than 32 µg/mL. The Anti-bacterial activity (MIC), strain ECO+ 15-3 ([3]; clinical isolate ECO+ 15-3) was greater than 32 µg/mL, the Anti-bacterial activity (MIC), strain ECO+ 15-4 ([3]; clinical isolate ECO+ 15-4) was 32 µg/mL and the Anti-bacterial activity (MIC), strain ECO− 15-1 ([3]; clinical isolate ECO− 15-1) was greater than 32 µg/mL. For the same molecule, the Anti-bacterial activity (MIC), strain ECO− 15-2 ([3]; clinical isolate ECO− 15-2) was greater than 32 µg/mL, the Anti-bacterial activity (MIC), strain ECO− 15-3 ([3]; clinical isolate ECO− 15-3) was greater than 32 µg/mL and the Anti-bacterial activity (MIC), strain ECO− 15-4 ([3]; clinical isolate ECO− 15-4) was greater than 32 µg/mL. For the same molecule, the Anti-bacterial activity (MIC), strain BCA 14-1 ([4]; clinical isolate BCA 14-1) was 2 µg/mL, the Anti-bacterial activity (MIC), strain BCA 14-4 ([4]; clinical isolate BCA 14-4) was 2 µg/mL and the Anti-bacterial activity (MIC), strain BCA 14-5 ([4]; clinical isolate BCA 14-5) was 0.5 µg/mL. For the same molecule, the Anti-bacterial activity (MIC), strain BCA 14-6 ([4]; clinical isolate BCA 14-6) was 1 µg/mL, the Anti-bacterial activity (MIC), strain BCA 14-7 ([4]; clinical isolate BCA 14-7) was 0.5 µg/mL and the Anti-bacterial activity (MIC), strain BCA 14-8 ([4]; clinical isolate BCA 14-8) was 1 µg/mL. For the same molecule, the Anti-bacterial activity (MIC), strain BCA 14-10 ([4]; clinical isolate BCA 14-10) was 0.5 µg/mL, the Anti-bacterial activity (MIC), strain SPN 16-2 ([5]; clinical isolate SPN 16-2) was 8 µg/mL and the Anti-bacterial activity (MIC), strain SPN 16-4 ([5]; clinical isolate SPN 16-4) was 0.5 µg/mL. For the same molecule, the Anti-bacterial activity (MIC), strain MRSA 15-1 ([6]; clinical isolate MRSA 15-1) was 0.25 µg/mL, the Anti-bacterial activity (MIC), strain MRSA 15-2 ([6]; clinical isolate MRSA 15-2) was 1 µg/mL and the Anti-bacterial activity (MIC), strain MRSA 15-3 ([6]; clinical isolate MRSA 15-3) was 0.2 µg/mL. For the same molecule, the Anti-bacterial activity (MIC), strain MRSA 15-4 ([6]; clinical isolate MRSA 15-4) was 0.5 µg/mL, the Anti-bacterial activity (MIC), strain MRSE 15-1 ([7]; clinical isolate MRSE 15-1) was 0.06 µg/mL and the Anti-bacterial activity (MIC), strain MRSE 15-2 ([7]; clinical isolate MRSE 15-2) was 0.25 µg/mL. It also gave an Anti-bacterial activity (MIC), strain MRSE 15-3 ([7]; clinical isolate MRSE 15-3) of 0.25 µg/mL, an Anti-bacterial activity (MIC), strain MRSE 15-7 ([7]; clinical isolate MRSE 15-7) of 0.25 µg/mL and an Anti-bacterial activity (MIC), strain MSSA 15-3 ([8]; clinical isolate MSSA 15-3) of 0.25 µg/mL. The Anti-bacterial activity (MIC), strain MSSA 15-4 ([8]; clinical isolate MSSA 15-4) was 0.125 µg/mL, the Anti-bacterial activity (MIC), strain MSSA 15-5 ([8]; clinical isolate MSSA 15-5) was 0.06 µg/mL and the Anti-bacterial activity (MIC), strain MSSA 15-6 ([8]; clinical isolate MSSA 15-6) was 0.5 µg/mL. For the same molecule, the Anti-bacterial activity (MIC), strain MSSE 15-3 ([9]; clinical isolate MSSE 15-3) was 0.125 µg/mL, the Anti-bacterial activity (MIC), strain MSSE 15-4 ([9]; clinical isolate MSSE 15-4) was 0.125 µg/mL and the Anti-bacterial activity (MIC), strain MSSE 15-5 ([9]; clinical isolate MSSE 15-5) was 0.06 µg/mL. It also gave an Anti-bacterial activity (MIC), strain MSSE 15-6 ([9]; clinical isolate MSSE 15-6) of 0.06 µg/mL, an inhibition at 30 µM ([10]; Homo sapiens, HCT-116, 72 h, read-out: HCT116 inhibition rate/%) greater than 50% and an HCT116 inhibition rate/% ([10]; 30 µM) of 65%. The inhibition at 30 µM [11] was 44%, the inhibition at 30 µM ([12]; Homo sapiens, Bel-7402, 72 h) was greater than 50% and the “Inhibition of proliferation, Liver cancer BEL-7402” value ([12]; 72 hours, 30 µM) was 68%. For the same molecule, the inhibition at 30 µM [13] was 40%.

— patent US10738028B2, “Spiro three-membered ring, spiro five-membered ring peptide deformylase inhibitor and use thereof in antibacteria and anti-tumor” (priority 2016, dated 2020)
